Measurements from US20090005248A1, “SYNERGISTIC HERBICIDAL COMPOSITION CONTAINING A SUBSTITUTED PHENOXY ALKANOIC ACID DERIVATIVE AND A GLYPHOSATE DERIVATIVE” (Dow AgroSciences LLC, priority 2007, published 2009).

What was measured:
Format in all cases: in vivo
[1] = tested on: velvetleaf (Abutilon theophrasti; ABUTH); experiment: Greenhouse foliar application, visual herbicidal activity on ABUTH; settings: 14 to 21 days after application
Description: (§1) 2,4-D (dimethylamine salt), dichlorprop (potassium salt) and Glyphomax XRT® herbicide (isopropylamine salt) alone and in combinations were applied to the foliage of rapidly growing plant material utilizing a track sprayer calibrated to deliver an application volume of 187 L/ha. Treated plant material was maintained in a greenhouse that provided a 16-hr photoperiod, supplemented with metal halide-generated light, set to provide a minimum of 500 μmolm^−2s^−1. The greenhouse was maintained at a temperature of 26 to 28° C. and a relative humidity of 50 to 70%. Assessment of herbicidal activity was performed visually 14 to 21 days after application.
(§2) The expected growth reduction of plant species from the combination of herbicides was calculated utilizing the Colby equation:
(§3) Expected growth reduction (E)=X+Y−(X*Y/100)
(§4) where X is % of growth reduction of a weed at a given concentration of a herbicide (or herbicide formulation) and Y is the % growth reduction of the same species and size weed at a given concentration of an independent herbicide (or herbicide formulation).

[2] = tested on: prickly sida (Sida spinosa; SIDSP); experiment: Greenhouse foliar application, visual herbicidal activity on SIDSP; settings: 2,4-D 140 g ae/ha alone, 14 to 21 days after application
Description: as §1, §2, §3, §4

[3] = tested on: ivyleaf morning glory (Ipomoea hederacea; IPOHE); experiment: Greenhouse foliar application, visual herbicidal activity on IPOHE; settings: 14 to 21 days after application
Description: as §1, §2, §3, §4

[4] = tested on: glyphosate-resistant Conyza canadensis (ERICA); experiment: Greenhouse foliar application, visual herbicidal activity on glyphosate-resistant ERICA; settings: 14 to 21 days after application
Description: as §1, §2, §3, §4

[5] = tested on: common waterhemp (Amaranthus rudis; AMATA); experiment: Greenhouse foliar application, visual herbicidal activity on AMATA; settings: 14 to 21 days after application
Description: as §1, §2, §3, §4

[6] = tested on: Canada thistle (Cirsium arvense; CIRAR); experiment: Greenhouse foliar application, visual herbicidal activity on CIRAR; settings: 14 to 21 days after application
Description: as §1, §2, §3, §4

[7] = tested on: glyphosate-susceptible Conyza canadensis (ERICA); experiment: Greenhouse foliar application, visual herbicidal activity on glyphosate-susceptible ERICA; settings: 14 to 21 days after application
Description: as §1, §2, §3, §4

[8] = tested on: field bindweed (Polygonum convolvulus; POLCO); experiment: Greenhouse foliar application, visual herbicidal activity on POLCO; settings: 14 to 21 days after application
Description: as §1, §2, §3, §4

[9] = tested on: common ragweed (Ambrosia artemesifolia; AMBEL); experiment: Greenhouse foliar application, visual herbicidal activity on AMBEL; settings: 14 to 21 days after application
Description: as §1, §2, §3, §4

[10] = tested on: hemp sesbania (Sesbania exaltata; SEBEX); experiment: Greenhouse foliar application, visual herbicidal activity on SEBEX; settings: 14 to 21 days after application
Description: as §1, §2, §3, §4

[11] = tested on: spiderwort (Commelina benghalensis; COMBE); experiment: Greenhouse foliar application, visual herbicidal activity on COMBE; settings: 14 to 21 days after application
Description: as §1, §2, §3, §4

[12] = tested on: glyphosate-resistant horseweed (ERICA, Conyza canadensis); experiment: Field study at Church Hill, Md., percent visual control of glyphosate-resistant horseweed; settings: 29 days after application
Description: as §2, §3, §4
A field study was conducted at Church Hill, Md. where glyphosate-resistant horseweed (ERICA, Conyza canadensis) had been observed for 2-3 years prior to the start of this study. The study design was a split-plot with 4 replications per treatment and each plot was 3.048 M wide and 9.144 M long. The environmental conditions at the time of application were as follows: air temperature, 22° C.; wind speed, 6 kph; wind direction, south; releative humidity, 85%; cloud cover, 80%; target foliage moisture, none; soil moisture, moist; soil temperature at 5 cm depth, 21° C. The treatments were applied using a backpack CO2 sprayer, with six XR8003 flat fan nozzles spaced 46 cm apart (boom length: 2.76 M) and held 40 cm above the plant canopy. The sprayer was operated at 103 kPa and 4.8 kilometers per hour to deliver 187 L of water per hectare. At the time of applications the glyphosate-resistant horseweed were 30-38 cm tall and there were between 10 and 20 plants per square meter (m^2). The percent visual control of glyphosate-resistant horseweed was rated over the entire plot (27.87 m^2) 29 days after application. In each plot between 278 and 557 glyphosate-resistant horseweed plants were rated, collectively, for percent visual control.

O=C(O)COc1ccc(Cl)cc1Cl [2,4-D, 2,4-dichlorophenoxy acetic acid]
Actual Injury (% growth reduction) ([1]; 2,4-D 280 g ae/ha alone): 28 % growth reduction | Actual Injury (% growth reduction) [2]: 17 % growth reduction | Actual Injury (% growth reduction) ([3]; 2,4-D 70 g ae/ha alone): 17 % growth reduction | Actual Injury (% growth reduction) ([4]; 2,4-D 70 g ae/ha alone): 38 % growth reduction | Actual Injury (% growth reduction) ([5]; 2,4-D 280 g ae/ha alone): 53 % growth reduction | Actual Injury (% growth reduction) ([6]; 2,4-D 280 g ae/ha alone): 38 % growth reduction | Actual Injury (% growth reduction) ([7]; 2,4-D 35 g ae/ha alone): 47 % growth reduction | Actual Injury (% growth reduction) ([8]; 2,4-D 280 g ae/ha alone): 32 % growth reduction | Actual Injury (% growth reduction) ([9]; 2,4-D 140 g ae/ha alone): 61 % growth reduction | Actual Injury (% growth reduction) ([10]; 2,4-D 280 g ae/ha alone): 37 % growth reduction | Actual Injury (% growth reduction) ([11]; 2,4-D 140 g ae/ha alone): 48 % growth reduction | Actual Injury (% growth reduction) ([12]; 2,4-D 280 g ae/ha alone): 12.5 % growth reduction | Actual Injury (% growth reduction) ([12]; 2,4-D 560 g ae/ha alone): 23.0 % growth reduction | Actual Injury (% growth reduction) ([12]; 2,4-D 1120 g ae/ha alone): 36.3 % growth reduction

CC(Oc1ccc(Cl)cc1Cl)C(=O)O (stereo not drawn) [Dichlorprop, 2,4-dichlorophenoxy propionic acid]
Actual Injury (% growth reduction) ([1]; Dichlorprop 70 g ae/ha alone): 33 % growth reduction | Actual Injury (% growth reduction) ([3]; Dichlorprop 70 g ae/ha alone): 68 % growth reduction | Actual Injury (% growth reduction) ([4]; Dichlorprop 210 g ae/ha alone): 43 % growth reduction | Actual Injury (% growth reduction) ([5]; Dichlorprop 280 g ae/ha alone): 48 % growth reduction | Actual Injury (% growth reduction) ([6]; Dichlorprop 70 g ae/ha alone): 48 % growth reduction | Actual Injury (% growth reduction) ([7]; Dichlorprop 210 g ae/ha alone): 43 % growth reduction | Actual Injury (% growth reduction) ([8]; Dichlorprop 140 g ae/ha alone): 38 % growth reduction | Actual Injury (% growth reduction) ([9]; Dichlorprop 280 g ae/ha alone): 58 % growth reduction | Actual Injury (% growth reduction) ([10]; Dichlorprop 140 g ae/ha alone): 38 % growth reduction | Actual Injury (% growth reduction) ([11]; Dichlorprop 70 g ae/ha alone): 80 % growth reduction
